Data published in ChEMBL document CHEMBL2146459, “Potentiation of ribonuclease cytotoxicity by a poly(amidoamine) dendrimer” (Bioorg Med Chem Lett, 2011).
Calls of active or inactive are those of the source. No cut-off for these calls is given here.

What was measured:
K562 [1] = assay: Potentiation of bovine wild type RNase-A-induced cytotoxicity against human K562 cells assessed as incorporation of [methyl-3H]-thymidine into cellular DNA at 1 to 10 uM after 4 hrs by liquid scintillation counting; format: functional, cell-based
[2] = molecular target: T1, Ribonuclease pancreatic (Bos taurus) (UniProt P61823); assay: Binding affinity to bovine RNase A in PBS buffer assessed as melting temperature at 1 uM after 3 hrs by UV spectroscopy (reference value: 62.7 +/- 0.1 degC)
T1 sequence (whole entry): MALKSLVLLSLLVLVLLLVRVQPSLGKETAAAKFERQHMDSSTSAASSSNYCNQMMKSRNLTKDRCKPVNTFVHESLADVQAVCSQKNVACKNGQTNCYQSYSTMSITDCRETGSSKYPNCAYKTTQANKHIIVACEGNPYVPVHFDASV

[3] = molecular target: T1, Ribonuclease pancreatic (Bos taurus); assay: Binding affinity to bovine RNase A in PBS assessed as melting temperature at 10 uM after 3 hrs by UV spectroscopy (reference value: 62.7 +/- 0.1 degC)
K562 [4] = assay: Potentiation of bovine RNase-A G88R mutant-induced cytotoxicity against human K562 cells assessed as incorporation of [methyl-3H]-thymidine into cellular DNA at 10 uM after 4 hrs by liquid scintillation counting; format: functional
Ribonuclease pancreatic = molecular target: T2, Ribonuclease pancreatic (Bos taurus, UniProt P61823); assay: Inhibition of bovine RNase A interaction to ribonuclease inhibitor protein after 30 mins by competition assay
T2 sequence (P61823 whole entry): T1 sequence (whole entry)

[5] = molecular target: T1, Ribonuclease pancreatic (Bos taurus); assay: Induction of bovine RNaseA internalization in human K562 cells assessed as internalization count at 1 uM after 3 hrs by flow cytometry; format: cell-based
[6] = molecular target: T1, Ribonuclease pancreatic (Bos taurus); assay: Effect on bovine RNase A ribonucleolytic activity assessed as kcat/KM ratio of 6-FAM-dArUdAdA-6-TAMRA at 1 uM by fluorescence assay
K562 [7] = assay: Potentiation of bovine RNase-A DRNG mutant-induced cytotoxicity against human K562 cells assessed as incorporation of [methyl-3H]-thymidine into cellular DNA at 10 uM after 4 hrs by liquid scintillation counting; format: functional
[8] = molecular target: T1, Ribonuclease pancreatic (Bos taurus); assay: Effect on bovine RNase A ribonucleolytic activity assessed as kcat/KM ratio of 6-FAM-dArUdAdA-6-TAMRA at 10 uM by fluorescence assay
[9] = molecular target: T1, Ribonuclease pancreatic (Bos taurus); assay: Induction of bovine RNaseA internalization in human K562 cells assessed as internalization count at 10 uM after 3 hrs by flow cytometry; format: cell-based

## NCCNC(=O)CCN(CCNC(=O)CCN(CCNC(=O)CCN(CCC(=O)NCCN(CCC(=O)NCCN(CCC(=O)NCCN)CCC(=O)NCCN)CCC(=O)NCCN(CCC(=O)NCCN)CCC(=O)NCCN)CCN(CCC(=O)NCCN(CCC(=O)NCCN(CCC(=O)NCCN)CCC(=O)NCCN)CCC(=O)NCCN(CCC(=O)NCCN)CCC(=O)NCCN)CCC(=O)NCCN(CCC(=O)NCCN(CCC(=O)NCCN)CCC(=O)NCCN)CCC(=O)NCCN(CCC(=O)NCCN)CCC(=O)NCCN)CCC(=O)NCCN(CCC(=O)NCCN)CCC(=O)NCCN)CCC(=O)NCCN [POLY(AMIDOAMINE)DENDRIMER]
K562 [1]
  Activity: inactive
[2]
  Tm: 62.8 °C
[3]
  Tm: 63.2 °C
K562 [4]
  fold change (FC): 5
Ribonuclease pancreatic
  Kd: 3.1 µM
[5]
  Activity: inactive
[6]
  Activity: inactive
K562 [7]
  fold change (FC): 5
[8]
  Activity: inactive
[9]
  Activity: inactive
